{
  "source": "patent US9510592B2",
  "about": "“Pesticidal compositions and processes related thereto” (Dow AgroSciences LLC, priority 2012, dated 2016)",
  "data": [
    {"tested_on": "Beet Armyworm (Spodoptera exigua)", "assay": "Bioassay on Beet Armyworm (BAW), 128-well diet tray assay", "format": "in vivo", "conditions": "percent mortality of second instar larvae, 50 μg/cm^2 on artificial diet, five to seven days, 25° C.; Table 3", "procedure": "Certain molecules disclosed in this document were tested against BAW and CEW and CL using procedures described in the following examples. In the reporting of the results, the “BAW & CEW & CL Rating Table” was used (See Table Section).\nBioassays on BAW (Spodoptera exigua)\nBioassays on BAW were conducted using a 128-well diet tray assay. one to five second instar BAW larvae were placed in each well (3 mL) of the diet tray that had been previously filled with 1 mL of artificial diet to which 50 μg/cm^2 of the test compound (dissolved in 50 μL of 90:10 acetone-water mixture) had been applied (to each of eight wells) and then allowed to dry. Trays were covered with a clear self-adhesive cover, and held at 25° C., 14:10 light-dark for five to seven days. Percent mortality was recorded for the larvae in each well; activity in the eight wells was then averaged. The results are indicated in the table entitled “Table 3: Assay Results” (See Table Section).", "values": [
      {"smiles": "O=C(NC1C[S+]([O-])C1)c1ccc(/C=C/C(c2cc(Cl)c(F)c(Cl)c2)C(F)(F)F)cc1F", "note": "(stereo not drawn) [AC87]", "BAW Rating": "A (50-100)"},
      {"smiles": "Cc1cc(/C=C/C(c2cc(Cl)cc(Cl)c2)C(F)(F)F)ccc1C(=O)NCc1nnc(C2CC2)o1", "note": "(stereo not drawn) [AC89, (E)-N-((5-Cyclopropyl-1,3,4-oxadiazol-2-yl)methyl)-4-(3-(3,5-dichlorophenyl)-4,4,4-trifluorobut-1-en-1-yl)-2-methylbenzamide]", "BAW Rating": "A (50-100)"},
      {"smiles": "FC(F)(F)CNC(=S)CNC(=S)c1ccc(/C=C/C(c2cc(Cl)c(Cl)c(Cl)c2)C(F)(F)F)cc1Br", "note": "(stereo not drawn) [AC90, (E)-2-Bromo-N-(2-thioxo-2-((2,2,2-trifluoroethyl)amino)ethyl)-4-(4,4,4-trifluoro-3-(3,4,5-trichlorophenyl)but-1-en-1-yl)benzothioamide]", "BAW Rating": "A (50-100)"},
      {"smiles": "O=C(CNC(=S)c1ccc(/C=C/C(c2cc(Cl)c(Cl)c(Cl)c2)C(F)(F)F)cc1Br)NCC(F)(F)F", "note": "(stereo not drawn) [AC91, (E)-2-(2-Bromo-4-(4,4,4-trifluoro-3-(3,4,5-trichlorophenyl)but-1-en-1-yl)phenylthioamido)-N-(2,2,2-trifluoroethyl)acetamide]", "BAW Rating": "A (50-100)"},
      {"smiles": "O=C(NCC(=S)NCC(F)(F)F)c1ccc(/C=C/C(c2cc(Cl)c(Cl)c(Cl)c2)C(F)(F)F)cc1Br", "note": "(stereo not drawn) [AC92, (E)-2-Bromo-N-(2-thioxo-2-((2,2,2-trifluoroethyl)amino)ethyl)-4-(4,4,4-trifluoro-3-(3,4,5-trichlorophenyl)but-1-en-1-yl)benzamide]", "BAW Rating": "A (50-100)"},
      {"smiles": "Cc1cc(/C=C\\C(c2cc(Cl)cc(Cl)c2)C(F)(F)F)ccc1C(=O)NCC(=O)NC1CC1", "note": "(stereo not drawn) [AC93]", "BAW Rating": "A (50-100)"},
      {"smiles": "O=C(CNC(=O)c1ccc(/C=C\\C(c2cc(Cl)c(Cl)c(Cl)c2)C(F)(F)F)cc1Br)NCC(F)(F)F", "note": "(stereo not drawn) [AC95, (Z)-2-Bromo-N-(2-oxo-2-((2,2,2-trifluoroethyl)amino)ethyl)-4-(4,4,4-trifluoro-3-(3,4,5-trichlorophenyl)but-1-en-1-yl)benzamide]", "BAW Rating": "A (50-100)"},
      {"smiles": "O=C(CNC(=O)c1ccc(/C=C/C(c2cc(Cl)c(F)c(Cl)c2)C(F)(F)F)cc1[N+](=O)[O-])NCC(F)(F)F", "note": "(stereo not drawn) [AC98]", "BAW Rating": "A (50-100)"},
      {"smiles": "O=C(CNC(=O)c1ccc(/C=C/C(c2ccc(F)c(Cl)c2)C(F)(F)F)cc1Br)NCC(F)(F)F", "note": "(stereo not drawn) [AC99]", "BAW Rating": "A (50-100)"},
      {"smiles": "CC(=O)N1CCC(NC(=O)c2ccc(/C=C/C(c3cc(Cl)c(Cl)c(Cl)c3)C(F)(F)F)cc2Br)CC1", "note": "(stereo not drawn) [AC103, (E)-N-(1-Acetylpiperidin-4-yl)-2-bromo-4-(4,4,4-trifluoro-3-(3,4,5-trichlorophenyl)but-1-en-1-yl)benzamide]", "BAW Rating": "A (50-100)"},
      {"smiles": "O=C(NC1CCN(C(=O)CC(F)(F)F)CC1)c1ccc(/C=C/C(c2cc(Cl)c(Cl)c(Cl)c2)C(F)(F)F)cc1Br", "note": "(stereo not drawn) [AC104, (E)-2-Bromo-4-(4,4,4-trifluoro-3-(3,4,5-trichlorophenyl)but-1-en-1-yl)-N-(1-(3,3,3-trifluoropropanoyl)piperidin-4-yl)benzamide]", "BAW Rating": "A (50-100)"},
      {"smiles": "CN1CCC(NC(=O)c2ccc(/C=C/C(c3cc(Cl)c(Cl)c(Cl)c3)C(F)(F)F)cc2Br)CC1", "note": "(stereo not drawn) [AC106, (E)-2-Bromo-N-(1-methylpiperidin-4-yl)-4-(4,4,4-trifluoro-3-(3,4,5-trichlorophenyl)but-1-en-1-yl)benzamide]", "BAW Rating": "A (50-100)"},
      {"smiles": "N#CCN1CCC(NC(=O)c2ccc(/C=C/C(c3cc(Cl)c(Cl)c(Cl)c3)C(F)(F)F)cc2Br)CC1", "note": "(stereo not drawn) [AC107]", "BAW Rating": "B (More than 0-Less than 50)"},
      {"smiles": "O=C(NC1CCN(C2COC2)CC1)c1ccc(/C=C/C(c2cc(Cl)c(Cl)c(Cl)c2)C(F)(F)F)cc1Br", "note": "(stereo not drawn) [AC108, (E)-2-Bromo-N-(1-(oxetan-3-yl)piperidin-4-yl)-4-(4,4,4-trifluoro-3-(3,4,5-trichlorophenyl)but-1-en-1-yl)benzamide]", "BAW Rating": "B (More than 0-Less than 50)"},
      {"smiles": "CONC(=O)CNC(=O)c1ccc(/C=C/C(c2cc(Cl)c(Cl)c(Cl)c2)C(F)(F)F)cc1Br", "note": "(stereo not drawn) [AC110]", "BAW Rating": "A (50-100)"},
      {"smiles": "C=CCNC(=O)CNC(=O)c1ccc(/C=C/C(c2cc(Cl)c(Cl)c(Cl)c2)C(F)(F)F)cc1Br", "note": "(stereo not drawn) [AC111]", "BAW Rating": "A (50-100)"},
      {"smiles": "O=C(NCCc1ccc(Cl)nc1)c1ccc(/C=C/C(c2cc(Cl)c(Cl)c(Cl)c2)C(F)(F)F)cc1Br", "note": "(stereo not drawn) [AC113]", "BAW Rating": "B (More than 0-Less than 50)"},
      {"smiles": "O=C(NC1CCNCC1)c1ccc(/C=C/C(c2cc(Cl)c(Cl)c(Cl)c2)C(F)(F)F)cc1Br", "note": "(stereo not drawn) [AC114, (E)-2-Bromo-N-(piperidin-4-yl)-4-(4,4,4-trifluoro-3-(3,4,5-trichlorophenyl)but-1-en-1-yl)benzamide]", "BAW Rating": "A (50-100)"},
      {"smiles": "Cc1cc(/C=C/C(c2cc(Cl)cc(Cl)c2)C(F)(F)F)ccc1C(=S)NCc1ccc(Cl)nc1", "note": "(stereo not drawn) [AC115, (E)-N-((6-Chloropyridin-3-yl)methyl)-4-(3-(3,5-dichlorophenyl)-4,4,4-trifluorobut-1-en-1-yl)-2-methylbenzothioamide]", "BAW Rating": "A (50-100)"},
      {"smiles": "Cc1cc(/C=C/C(c2cc(Cl)cc(Cl)c2)C(F)(F)F)ccc1C(=O)N(C)Cc1ccc(Cl)nc1", "note": "(stereo not drawn) [AC117]", "BAW Rating": "A (50-100)"},
      {"smiles": "Cc1cc(/C=C/C(c2cc(Cl)cc(Cl)c2)C(F)(F)F)ccc1C(=O)NCC1CCCO1", "note": "(stereo not drawn) [AC118]", "BAW Rating": "A (50-100)"},
      {"smiles": "O=C(CC(F)(F)F)NC1CCCc2cc(/C=C/C(c3cc(Cl)c(Cl)c(Cl)c3)C(F)(F)F)ccc21", "note": "(stereo not drawn) [BC5]", "BAW Rating": "A (50-100)"},
      {"smiles": "O=C(NC1CCc2cc(/C=C/C(c3cc(Cl)c(Cl)c(Cl)c3)C(F)(F)F)ccc21)C1CC1", "note": "(stereo not drawn) [BC6]", "BAW Rating": "A (50-100)"},
      {"smiles": "O=C(NC1CCCc2cc(/C=C/C(c3cc(Cl)c(Cl)c(Cl)c3)C(F)(F)F)ccc21)C1CC1", "note": "(stereo not drawn) [BC7]", "BAW Rating": "A (50-100)"},
      {"smiles": "O=C(CC(F)(F)F)NC1CCc2cc(/C=C/C(c3cc(Cl)c(F)c(Cl)c3)C(F)(F)F)ccc21", "note": "(stereo not drawn) [BC8]", "BAW Rating": "A (50-100)"},
      {"smiles": "O=C(Cc1ccc(Cl)nc1)NC1CCc2cc(/C=C/C(c3cc(Cl)c(F)c(Cl)c3)C(F)(F)F)ccc21", "note": "(stereo not drawn) [BC9]", "BAW Rating": "A (50-100)"},
      {"smiles": "Fc1c(Cl)cc(C(/C=C/c2ccc3c(c2)CCC3NCCC(F)(F)F)C(F)(F)F)cc1Cl", "note": "(stereo not drawn) [BC10, (E)-5-(3-(3,5-Dichloro-4-fluorophenyl)-4,4,4-trifluorobut-1-en-1-yl)-N-(3,3,3-trifluoropropyl)-2,3-dihydro-1H-inden-1-amine]", "BAW Rating": "A (50-100)"},
      {"smiles": "O=C(CC(F)(F)F)NCC(=O)n1ccc2cc(/C=C/C(c3cc(Cl)c(F)c(Cl)c3)C(F)(F)F)ccc21", "note": "(stereo not drawn) [BC13, (E)-N-(2-(5-(3-(3,5-Dichloro-4-fluorophenyl)-4,4,4-trifluorobut-1-en-1-yl)-1H-indol-1-yl)-2-oxoethyl)-3,3,3-trifluoropropanamide]", "BAW Rating": "A (50-100)"},
      {"smiles": "O=C(Cn1ncc2cc(/C=C/C(c3cc(Cl)c(F)c(Cl)c3)C(F)(F)F)ccc2c1=O)NCC(F)(F)F", "note": "(stereo not drawn) [BC14, (E)-2-(6-(3-(3,5-Dichloro-4-fluorophenyl)-4,4,4-trifluorobut-1-en-1-yl)-1-oxophthalazin-2(1H)-yl)-N-(2,2,2-trifluoroethyl)acetamide]", "BAW Rating": "A (50-100)"},
      {"smiles": "O=C(NCc1ccc(/C=C/C(c2cc(Cl)cc(Cl)c2)C(F)(F)F)cc1)C1CC1", "note": "(stereo not drawn) [CC2]", "BAW Rating": "A (50-100)"},
      {"smiles": "O=C(CC(F)(F)F)NCc1ccc(/C=C/C(c2cc(Cl)cc(Cl)c2)C(F)(F)F)cc1", "note": "(stereo not drawn) [CC3]", "BAW Rating": "A (50-100)"},
      {"smiles": "CCC(=O)NCc1ccc(/C=C/C(c2cc(Cl)cc(Cl)c2)C(F)(F)F)cc1", "note": "(stereo not drawn) [CC4]", "BAW Rating": "A (50-100)"},
      {"smiles": "O=C(NCc1ccc(/C=C/C(c2cc(Cl)c(Cl)c(Cl)c2)C(F)(F)F)cc1)C1CC1", "note": "(stereo not drawn) [CC5]", "BAW Rating": "A (50-100)"}
    ]}
  ]
}
